# Target: T1, F508del (Homo sapiens, UniProt P13569, DEL508-508)
# T1 construct: expressed in transfected cells
# Experiment: Protocol 2: FRET membrane potential optical assay (VIPR), identification of correction compounds
# Format: cell-based
# Settings: Table 3; compounds of Table 1 as modulators of CFTR activity; protocol not stated
# Procedure, shortened: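 NIH3T3 mouse fibroblasts stably expressing F508del-CFTR incubated with compound 16 h at 37 °C in serum-free medium, then loaded with CC2-DMPE/DiSBAC2(3) FRET dyes. Channel activated with 10 μM forskolin plus 20 μM genistein in Cl⁻-free (gluconate) bath; depolarisation from Cl⁻ efflux read on VIPR II.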
# T1 sequence (P13569 with tags, fused parts or gaps DEL508-508): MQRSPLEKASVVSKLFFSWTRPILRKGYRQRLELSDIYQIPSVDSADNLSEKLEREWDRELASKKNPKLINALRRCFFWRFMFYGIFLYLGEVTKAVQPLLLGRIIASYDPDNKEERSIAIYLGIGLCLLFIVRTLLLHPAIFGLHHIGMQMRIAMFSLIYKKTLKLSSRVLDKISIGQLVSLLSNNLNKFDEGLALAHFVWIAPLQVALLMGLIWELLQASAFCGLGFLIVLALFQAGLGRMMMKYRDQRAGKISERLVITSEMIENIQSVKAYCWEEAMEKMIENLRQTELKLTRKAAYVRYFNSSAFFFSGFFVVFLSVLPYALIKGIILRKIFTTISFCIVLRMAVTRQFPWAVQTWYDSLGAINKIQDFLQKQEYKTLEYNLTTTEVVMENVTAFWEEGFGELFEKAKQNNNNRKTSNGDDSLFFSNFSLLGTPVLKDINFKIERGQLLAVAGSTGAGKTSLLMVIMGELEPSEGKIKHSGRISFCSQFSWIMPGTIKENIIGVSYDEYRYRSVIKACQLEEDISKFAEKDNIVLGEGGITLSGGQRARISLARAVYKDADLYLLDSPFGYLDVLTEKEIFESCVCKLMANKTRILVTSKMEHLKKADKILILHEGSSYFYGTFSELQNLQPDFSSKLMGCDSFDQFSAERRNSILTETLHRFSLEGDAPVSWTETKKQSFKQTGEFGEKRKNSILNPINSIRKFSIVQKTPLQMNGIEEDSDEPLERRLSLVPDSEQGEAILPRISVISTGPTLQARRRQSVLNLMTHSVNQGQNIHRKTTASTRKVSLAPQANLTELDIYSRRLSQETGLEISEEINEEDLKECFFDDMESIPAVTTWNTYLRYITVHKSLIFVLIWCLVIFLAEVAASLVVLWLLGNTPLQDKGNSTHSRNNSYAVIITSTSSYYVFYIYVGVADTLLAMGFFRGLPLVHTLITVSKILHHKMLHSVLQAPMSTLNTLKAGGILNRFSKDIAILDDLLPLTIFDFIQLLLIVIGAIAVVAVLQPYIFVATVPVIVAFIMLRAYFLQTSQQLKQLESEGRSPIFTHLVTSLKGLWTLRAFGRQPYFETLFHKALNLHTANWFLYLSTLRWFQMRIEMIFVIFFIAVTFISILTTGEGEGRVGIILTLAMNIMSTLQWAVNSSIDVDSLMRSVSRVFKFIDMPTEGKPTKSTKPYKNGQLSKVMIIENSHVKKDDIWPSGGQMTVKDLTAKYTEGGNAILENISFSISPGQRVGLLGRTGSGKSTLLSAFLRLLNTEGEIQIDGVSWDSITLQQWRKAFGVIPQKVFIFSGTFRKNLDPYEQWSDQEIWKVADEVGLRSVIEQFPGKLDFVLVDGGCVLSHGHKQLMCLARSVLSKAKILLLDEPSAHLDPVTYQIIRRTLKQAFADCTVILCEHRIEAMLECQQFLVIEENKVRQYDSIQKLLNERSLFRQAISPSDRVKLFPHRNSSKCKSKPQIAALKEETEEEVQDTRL
row,EC30,Compound
1,++ (“++” means between 3 uM and 10 uM),"COc1cc(F)cc(-c2ccc(C(=O)NS(=O)(=O)c3ccc[nH]c3=O)c(Oc3c(C)cc(C)cc3C)n2)c1 [Compound 652, 6-(3-fluoro-5-methoxy-phenyl)-N-[(2-oxo-1H-pyridin-3-yl)sulfonyl]-2-(2,4,6-trimethylphenoxy)pyridine-3-carboxamide]"
2,+ (“+” means greater than 10 uM),"Cc1ccc(-n2c(C(=O)NS(=O)(=O)c3cccc(N)n3)cc3cc(C)ccc32)cc1 [Compound 653, N-[(6-amino-2-pyridyl)sulfonyl]-5-methyl-1-(p-tolyl)indole-2-carboxamide]"
3,+++ (“+++” means <3 uM),"Cc1cc(C)c(Oc2nc(-c3ccccc3)ccc2C(=O)NS(=O)(=O)c2ccc[nH]c2=O)c(C)c1 [Compound 654, N-[(2-oxo-1H-pyridin-3-yl)sulfonyl]-6-phenyl-2-(2,4,6-trimethylphenoxy)pyridine-3-carboxamide]"
4,+++ (“+++” means <3 uM),"CC(C)Oc1ccc(-c2ccc(C(=O)NS(=O)(=O)c3cccc(N)n3)c(N3CCCC(CC(F)(F)F)C3)n2)cn1 (centres unmarked) [Compound 656, N-[(6-amino-2-pyridyl)sulfonyl]-6-(6-isopropoxy-3-pyridyl)-2-[3-(2,2,2-trifluoroethyl)-1-piperidyl]pyridine-3-carboxamide]"
5,+++ (“+++” means <3 uM),"CC(C)Oc1ccc(-c2ccc(C(=O)NS(=O)(=O)c3cccc(N)n3)c(N3CCC(Cc4ccccc4)C3C)n2)cn1 (centres unmarked) [Compound 658, N-[(6-amino-2-pyridyl)sulfonyl]-2-(3-benzyl-2-methyl-pyrrolidin-1-yl)-6-(6-isopropoxy-3-pyridyl)pyridine-3-carboxamide]"
6,+ (“+” means greater than 10 uM),"C[C@@H]1CC[C@H](C)N1c1nc(-c2ccccc2)ccc1C(=O)NS(=O)(=O)c1ccc[nH]c1=O [Compound 660, 2-[(2S,5R)-2,5-dimethylpyrrolidin-1-yl]-N-[(2-oxo-1H-pyridin-3-yl)sulfonyl]-6-phenyl-pyridine-3-carboxamide]"
7,+++ (“+++” means <3 uM),"COc1cccc(-c2ccc(C(=O)NS(=O)(=O)c3cccc(N)n3)c(Oc3c(C)cc(C)cc3C)n2)c1F [Compound 661, N-[(6-amino-2-pyridyl)sulfonyl]-6-(2-fluoro-3-methoxy-phenyl)-2-(2,4,6-trimethylphenoxy)pyridine-3-carboxamide]"
8,+ (“+” means greater than 10 uM),"Cc1cc(C)c(CN2CCc3ccccc3CC2C(=O)NS(=O)(=O)c2ccc[nH]c2=O)c(C)c1 (centres unmarked) [Compound 662, N-[(2-oxo-1H-pyridin-3-yl)sulfonyl]-3-[(2,4,6-trimethylphenyl)methyl]-1,2,4,5-tetrahydro-3-benzazepine-4-carboxamide]"
9,+++ (“+++” means <3 uM),"CC1CCN(c2nc(-c3cc(F)cc(OCC4CC4)c3)ccc2C(=O)NS(=O)(=O)c2ccc[nH]c2=O)CC1 [Compound 664, 6-[3-(cyclopropylmethoxy)-5-fluoro-phenyl]-2-(4-methyl-1-piperidyl)-N-[(2-oxo-1H-pyridin-3-yl)sulfonyl]pyridine-3-carboxamide]"
10,+++ (“+++” means <3 uM),"Cc1cc(C)c(Oc2nc3c(cc2C(=O)NS(=O)(=O)c2cccc(N)n2)CCC(C)(C)C3)c(C)c1 [Compound 665, N-[(6-amino-2-pyridyl)sulfonyl]-7,7-dimethyl-2-(2,4,6-trimethylphenoxy)-6,8-dihydro-5H-quinoline-3-carboxamide]"
11,++ (“++” means between 3 uM and 10 uM),"Cc1ccccc1CN1Cc2ccccc2C1(C)C(=O)NS(=O)(=O)c1cccc(N)n1 (centres unmarked) [Compound 666, N-[(6-amino-2-pyridyl)sulfonyl]-1-methyl-2-(o-tolylmethyl)isoindoline-1-carboxamide]"
12,+++ (“+++” means <3 uM),"Cc1cc(C)c(Oc2nc(C(C)(C)C)ccc2C(=O)NS(=O)(=O)c2cccn(C)c2=O)c(C)c1 [Compound 667, 6-tert-butyl-N-[(1-methyl-2-oxo-3-pyridyl)sulfonyl]-2-(2,4,6-trimethylphenoxy)pyridine-3-carboxamide]"
13,+++ (“+++” means <3 uM),"Cc1cc(C)c(CN2CCc3ccccc3CC2C(=O)NS(=O)(=O)c2cccc(N3CCOCC3)n2)c(C)c1 (centres unmarked) [Compound 669, N-[(6-morpholino-2-pyridyl)sulfonyl]-3-[(2,4,6-trimethylphenyl)methyl]-1,2,4,5-tetrahydro-3-benzazepine-4-carboxamide]"
14,++ (“++” means between 3 uM and 10 uM),"Cc1cc(C)c(Oc2nc(C)ccc2C(=O)NS(=O)(=O)c2ccn[nH]2)c(C)c1 [Compound 670, 6-methyl-N-(1H-pyrazol-5-ylsulfonyl)-2-(2,4,6-trimethylphenoxy)pyridine-3-carboxamide]"
15,+++ (“+++” means <3 uM),"Cc1cccc(-c2ccc(C(=O)NS(=O)(=O)c3cccc(N)n3)c(Oc3c(C)cc(C)cc3C)n2)c1 [Compound 672, N-[(6-amino-2-pyridyl)sulfonyl]-6-(m-tolyl)-2-(2,4,6-trimethylphenoxy)pyridine-3-carboxamide]"
16,+++ (“+++” means <3 uM),"Cc1cc(C)c(Oc2nc(-c3ccc4c(c3)OCCO4)ccc2C(=O)NS(=O)(=O)c2cccc(N)n2)c(C)c1 [Compound 673, N-[(6-amino-2-pyridyl)sulfonyl]-6-(2,3-dihydro-1,4-benzodioxin-6-yl)-2-(2,4,6-trimethylphenoxy)pyridine-3-carboxamide]"
17,+++ (“+++” means <3 uM),"Cc1cc(C)c(CN2CCCc3ccccc3C2C(=O)NS(=O)(=O)c2ccccc2)c(C)c1 (centres unmarked) [Compound 674, N-(benzenesulfonyl)-2-[(2,4,6-trimethylphenyl)methyl]-1,3,4,5-tetrahydro-2-benzazepine-1-carboxamide]"
18,+++ (“+++” means <3 uM),"CC(C)Oc1ccc(-c2ccc(C(=O)NS(=O)(=O)c3cccc(N)n3)c(N3C(C)CC4CCCCC43)n2)cn1 (centres unmarked) [Compound 675, N-[(6-amino-2-pyridyl)sulfonyl]-6-(6-isopropoxy-3-pyridyl)-2-(2-methyl-2,3,3a,4,5,6,7,7a-octahydroindol-1-yl)pyridine-3-carboxamide]"
19,+++ (“+++” means <3 uM),"Cc1cc(C)c(Oc2nc(-n3ccc(C(F)(F)F)n3)ccc2C(=O)NS(=O)(=O)c2cccc(N)n2)c(C)c1 [Compound 676, N-[(6-amino-2-pyridyl)sulfonyl]-6-[3-(trifluoromethyl)pyrazol-1-yl]-2-(2,4,6-trimethylphenoxy)pyridine-3-carboxamide]"

row,Compound,EC30
1,"CC(C)COc1cc(F)cc(-c2ccc(C(=O)NS(=O)(=O)c3cccc(N)n3)c(N3CCC[C@H](c4ccccc4)C3)n2)c1 [Compound 651, N-[(6-amino-2-pyridyl)sulfonyl]-6-(3-fluoro-5-isobutoxy-phenyl)-2-[(3R)-3-phenyl-1-piperidyl]pyridine-3-carboxamide]",+++ (“+++” means <3 uM)
2,"CC(C)COc1cc(F)cc(-c2ccc(C(=O)NS(=O)(=O)c3cccc(N)n3)c(N3CCCC(C4CC4)C3)n2)c1 (centres unmarked) [Compound 655, N-[(6-amino-2-pyridyl)sulfonyl]-2-(3-cyclopropyl-1-piperidyl)-6-(3-fluoro-5-isobutoxy-phenyl)pyridine-3-carboxamide]",+++ (“+++” means <3 uM)
3,"CC(C)COc1cc(F)cc(-c2ccc(C(=O)NS(=O)(=O)c3cccc(N)n3)c(N3CC[C@@H](C)C3(C)C)n2)c1 [Compound 657, N-[(6-amino-2-pyridyl)sulfonyl]-6-(3-fluoro-5-isobutoxy-phenyl)-2-[(3R)-2,2,3-trimethylpyrrolidin-1-yl]pyridine-3-carboxamide]",+++ (“+++” means <3 uM)
4,"CC(C)COc1cc(F)cc(-c2ccc(C(=O)NS(=O)(=O)c3cccc(N)n3)c(N3CCCC3c3ccccn3)n2)c1 (centres unmarked) [Compound 659, N-[(6-amino-2-pyridyl)sulfonyl]-6-(3-fluoro-5-isobutoxy-phenyl)-2-[2-(2-pyridyl)pyrrolidin-1-yl]pyridine-3-carboxamide]",++ (“++” means between 3 uM and 10 uM)
5,"CC(C)COc1cc(F)cc(-c2ccc(C(=O)NS(=O)(=O)c3cccc(N)n3)c(N3CCCC3(C)Cc3ccccc3)n2)c1 (centres unmarked) [Compound 663, N-[(6-amino-2-pyridyl)sulfonyl]-2-(2-benzyl-2-methyl-pyrrolidin-1-yl)-6-(3-fluoro-5-isobutoxy-phenyl)pyridine-3-carboxamide]",+++ (“+++” means <3 uM)
6,"CC(C)COc1cc(F)cc(-c2ccc(C(=O)NS(=O)(=O)c3ccn[nH]3)c(N3CCC[C@@H](C)C3)n2)c1 [Compound 668, 6-(3-fluoro-5-isobutoxy-phenyl)-2-[(3R)-3-methyl-1-piperidyl]-N-(1H-pyrazol-5-ylsulfonyl)pyridine-3-carboxamide]",+++ (“+++” means <3 uM)
7,"Cc1cccc(C)c1Oc1nc(-c2cc(F)cc(OCC(C)C)c2)ccc1C(=O)NS(=O)(=O)c1ccn[nH]1 [Compound 671, 2-(2,6-dimethylphenoxy)-6-(3-fluoro-5-isobutoxy-phenyl)-N-(1H-pyrazol-5-ylsulfonyl)pyridine-3-carboxamide]",+++ (“+++” means <3 uM)
8,"CC(C)COc1cc(F)cc(-c2ccc(C(=O)NS(=O)(=O)c3ccn[nH]3)c(N3CCCC(c4ccccn4)C3)n2)c1 (centres unmarked) [Compound 677, 6-(3-fluoro-5-isobutoxy-phenyl)-N-(1H-pyrazol-5-ylsulfonyl)-2-[3-(2-pyridyl)-1-piperidyl]pyridine-3-carboxamide]",++ (“++” means between 3 uM and 10 uM)
9,"CC(C)COc1cc(F)cc(-c2ccc(C(=O)NS(=O)(=O)c3cccc(N)n3)c(N3CC[C@H](C)C3)n2)c1 [Compound 678, N-[(6-amino-2-pyridyl)sulfonyl]-6-(3-fluoro-5-isobutoxy-phenyl)-2-[(3S)-3-methylpyrrolidin-1-yl]pyridine-3-carboxamide]",+++ (“+++” means <3 uM)
10,"CC(C)COc1cc(F)cc(-c2ccc(C(=O)NS(=O)(=O)c3ccn[nH]3)c(Oc3ccccc3)n2)c1 [Compound 679, 6-(3-fluoro-5-isobutoxy-phenyl)-2-phenoxy-N-(1H-pyrazol-5-ylsulfonyl)pyridine-3-carboxamide]",+++ (“+++” means <3 uM)

# — US10758534B2 (Vertex Pharmaceuticals Incorporated, priority 2014, dated 2020)
